Experimental data from patent publication US6596518B2, “Percyquinnin, a process for its production and its use as a pharmaceutical” (Aventis Pharma Deutschland GmbH, priority 2000, dated 2003).

Experiment: Solubility (physico-chemical properties, Table 1)
Format: physicochemical
Conditions: solvents in which the compound is soluble

- Solubility: Methanol, DMSO
SMILES: CC(C)=CCC12C(=O)OC1CC=C2CO (stereo not shown) [Percyquinnin]
